The record followed here is patent US10577363B2, “Substituted piperidine compounds” (EPIZYME, INC., priority 2014, dated 2020).

Experiment [1] deals with T1, SMYD3 (Homo sapiens (Human), UniProt Q9H7B4). Description: SMYD3 biochemical assay (SPA, 3H-SAM methylation of MEKK2 protein substrate). To be noted: Table 2A; read-out: SMYD3 Biochem IC50. In short, it runs like this: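 Native full-length human SMYD3 (E. coli-expressed, tags removed) was preincubated with compound for 30 min at room temperature in 25 mM Tris-Cl pH 8.0, 1 mM TCEP, 0.005% BSG, 0.005% Tween 20. Reaction was started with 3H-SAM plus GST-MEKK2, quenched with 100 uM unlabeled SAM, and read by SPA scintillation counting.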

In experiment [2] the target is T1, SMYD3. In words: SMYD3 cell assay (Trimethyl-MEKK2 In-Cell Western in 293T/17 cells). The format is cell-based. To be noted: Table 2A; read-out: SMYD3 Cell IC50. Put shortly:
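In-Cell Western ratio of trimethyl-Lys260 MEKK2 to anti-flag signal; percent inhibition from DMSO and maximum-inhibition controls, IC50 by non-linear regression, triplicates.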

T1 sequence (Q9H7B4 whole entry): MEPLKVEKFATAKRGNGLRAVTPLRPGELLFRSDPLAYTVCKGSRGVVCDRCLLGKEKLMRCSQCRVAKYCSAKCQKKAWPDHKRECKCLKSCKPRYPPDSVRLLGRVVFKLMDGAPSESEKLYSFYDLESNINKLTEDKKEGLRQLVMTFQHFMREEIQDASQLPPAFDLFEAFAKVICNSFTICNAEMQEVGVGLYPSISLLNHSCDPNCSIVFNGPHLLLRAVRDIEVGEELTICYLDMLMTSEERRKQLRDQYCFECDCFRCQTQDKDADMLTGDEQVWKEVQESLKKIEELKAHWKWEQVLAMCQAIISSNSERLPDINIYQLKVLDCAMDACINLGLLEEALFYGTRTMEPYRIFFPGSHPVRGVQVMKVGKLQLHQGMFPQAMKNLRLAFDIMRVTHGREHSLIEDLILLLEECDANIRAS

As a reminder, the IC50 is the concentration that gives 50% inhibition. For `C[C@H]1C[C@@H](NC(=O)c2cc(C3CC3)on2)CCN1S(=O)(=O)N1CC2CCC(C1)N2C` [compound 565, 5-cyclopropyl-N-((2S,4S)-2-methyl-1-((8-methyl-3,8-diazabicyclo[3.2.1]octan-3-yl)sulfonyl)piperidin-4-yl)isoxazole-3-carboxamide], the concentration for half-maximal inhibition (IC50) on SMYD3 [1] stood at 6 nM; on SMYD3 [2] it was 49.4 nM.

As for `C[C@H]1C[C@@H](NC(=O)c2cc(C3CC3)on2)CCN1S(=O)(=O)CCCNCc1ccc(C(F)(F)F)cc1` [compound 566, 5-cyclopropyl-N-((2S,4S)-2-methyl-1-((3-((4-(trifluoromethyl)benzyl)amino)propyl)sulfonyl)piperidin-4-yl)isoxazole-3-carboxamide], the figures for the IC50 at SMYD3 [1] and at SMYD3 [2] were 6.1 nM and 322 nM, respectively.

As for `C[C@H]1CN(S(=O)(=O)N2CCC(N)CC2)CC[C@H]1NC(=O)c1cc(C2CC2)on1` [compound 567, N-((3S,4R)-1-((4-aminopiperidin-1-yl)sulfonyl)-3-methylpiperidin-4-yl)-5-cyclopropylisoxazole-3-carboxamide], the figures for the concentration for half-maximal inhibition (IC50) on SMYD3 [1] and at SMYD3 [2] were 6.1 nM and 113 nM, respectively.

For `C[C@@H]1C[C@H](NC(=O)c2cc(C3CC3)on2)CCN1S(=O)(=O)CC1CCN(C)CC1` [compound 568, 5-cyclopropyl-N-((2R,4R)-2-methyl-1-(((1-methylpiperidin-4-yl)methyl)sulfonyl)piperidin-4-yl)isoxazole-3-carboxamide], the 50% inhibitory concentration (IC50) at SMYD3 [1] stood at 6.3 nM; at SMYD3 [2], 156 nM.

Turning to `O=C(N[C@H]1C[C@H]2CC[C@@H](C1)N2S(=O)(=O)C[C@@H]1CCCNC1)c1cc(C2CC2)on1` [compound 569, 5-cyclopropyl-N-((1R,3R,5S)-8-((((R)-piperidin-3-yl)methyl)sulfonyl)-8-azabicyclo[3.2.1]octan-3-yl)isoxazole-3-carboxamide], the figures for the half-maximal inhibitory concentration (IC50) at SMYD3 [1] and at SMYD3 [2] were 6.6 nM and 39.4 nM, respectively.

Turning to `C[C@H]1C[C@@H](NC(=O)c2cc(C3CC3)on2)CCN1S(=O)(=O)N1CC2CC1CN2` (stereo partly drawn) [compound 570, N-((2S,4S)-1-((2,5-diazabicyclo[2.2.1]heptan-2-yl)sulfonyl)-2-methylpiperidin-4-yl)-5-cyclopropylisoxazole-3-carboxamide], the figures for the 50% inhibitory concentration (IC50) on SMYD3 [1] and at SMYD3 [2] were 6.7 nM and 83.9 nM, respectively.

For `O=C(N[C@H]1C[C@H]2CC[C@@H](C1)N2S(=O)(=O)N1CC2CC(C1)N2)c1cc(C2CC2)on1` [compound 571, N-((1R,3r,5S)-8-((3,6-diazabicyclo[3.1.1]heptan-3-yl)sulfonyl)-8-azabicyclo[3.2.1]octan-3-yl)-5-cyclopropylisoxazole-3-carboxamide], the IC50 at SMYD3 [1] worked out at 7.5 nM; at SMYD3 [2], 99.2 nM.

On to `C[C@H]1CN(S(=O)(=O)N2CC[C@H](NC(=O)c3cc(C4CC4)on3)C[C@@H]2C)CCN1` [compound 572, 5-cyclopropyl-N-((2S,4S)-2-methyl-1-(((S)-3-methylpiperazin-1-yl)sulfonyl)piperidin-4-yl)isoxazole-3-carboxamide], for which the 50% inhibitory concentration (IC50) on SMYD3 [1] stood at 7.8 nM; at SMYD3 [2], 53.6 nM.

Regarding `C[C@@H]1C[C@H](NC(=O)c2cc(C3CC3)on2)CCN1S(=O)(=O)CC1CCN(Cc2ccccc2)CC1` [compound 573, N-((2R,4R)-1-(((1-benzylpiperidin-4-yl)methyl)sulfonyl)-2-methylpiperidin-4-yl)-5-cyclopropylisoxazole-3-carboxamide], the IC50 on SMYD3 [1] came out at 8 nM; at SMYD3 [2], 293 nM.

`C[C@H]1C[C@@H](NC(=O)c2cc(C3CC3)on2)CCN1S(=O)(=O)C1CCN(C)CC1` [compound 574, 5-cyclopropyl-N-((2S,4S)-2-methyl-1-((1-methylpiperidin-4-yl)sulfonyl)piperidin-4-yl)isoxazole-3-carboxamide]: the IC50 on SMYD3 [1] is 8 nM; on SMYD3 [2], 105 nM.

For the compound `O=C(N[C@H]1C[C@H]2CC[C@@H](C1)N2S(=O)(=O)C[C@H]1CCCNC1)c1cc(C2CC2)on1` [compound 575, 5-cyclopropyl-N-((1R,3S,5S)-8-((((S)-piperidin-3-yl)methyl)sulfonyl)-8-azabicyclo[3.2.1]octan-3-yl)isoxazole-3-carboxamide], the figures for the IC50 at SMYD3 [1] and on SMYD3 [2] were 8 nM and 67.4 nM, respectively.

`C[C@H]1C[C@@H](NC(=O)c2cc(C3CC3)on2)CCN1S(=O)(=O)CCCCN(C)C` [compound 576, 5-cyclopropyl-N-((2S,4S)-1-((4-(dimethylamino)butyl)sulfonyl)-2-methylpiperidin-4-yl)isoxazole-3-carboxamide]: the IC50 on SMYD3 [1] amounted to 8.1 nM; at SMYD3 [2], 106 nM.

As for `C[C@H]1C[C@@H](NC(=O)c2cc(C3CC3)on2)CCN1S(=O)(=O)N1CC2CCC1CN2` (stereo partly drawn) [compound 577, N-((2S,4S)-1-((2,5-diazabicyclo[2.2.2]octan-2-yl)sulfonyl)-2-methylpiperidin-4-yl)-5-cyclopropylisoxazole-3-carboxamide], the IC50 on SMYD3 [1] was found to be 9.2 nM; on SMYD3 [2] it was 134 nM.

As to `C[C@H]1C[C@@H](NC(=O)c2cc(C3CC3)on2)CCN1S(=O)(=O)CCCNCc1ccc2ccccc2c1` [compound 578, 5-cyclopropyl-N-((2S,4S)-2-methyl-1-((3-((naphthalen-2-ylmethyl)amino)propyl)sulfonyl)piperidin-4-yl)isoxazole-3-carboxamide], the figures for the IC50 on SMYD3 [1] and at SMYD3 [2] were 9.4 nM and 289 nM, respectively.

As for `C[C@@H]1C[C@H](NC(=O)c2cc(C3CC3)on2)CCN1S(=O)(=O)CC1CCN(CCN2CCCCC2)CC1` [compound 579, 5-cyclopropyl-N-((2R,4R)-2-methyl-1-(((1-(2-(piperidin-1-yl)ethyl)piperidin-4-yl)methyl)sulfonyl)piperidin-4-yl)isoxazole-3-carboxamide], the results for the IC50 at SMYD3 [1] and on SMYD3 [2] were 9.5 nM and 587 nM, respectively.

As for `O=C(N[C@H]1C[C@H]2CC[C@@H](C1)N2S(=O)(=O)N1CC2(CNC2)C1)c1cc(C2CC2)on1` [compound 580, N-((1R,3r,5S)-8-((2,6-diazaspiro[3.3]heptan-2-yl)sulfonyl)-8-azabicyclo[3.2.1]octan-3-yl)-5-cyclopropylisoxazole-3-carboxamide], the IC50 at SMYD3 [1] is 9.7 nM; at SMYD3 [2], 88.9 nM.

`CC(C)NC1CCN(S(=O)(=O)N2CC[C@H](NC(=O)c3cc(C4CC4)on3)C[C@@H]2C)CC1` [compound 581, 5-cyclopropyl-N-((2S,4S)-1-((4-(isopropylamino)piperidin-1-yl)sulfonyl)-2-methylpiperidin-4-yl)isoxazole-3-carboxamide]: the results for the half-maximal inhibitory concentration (IC50) at SMYD3 [1] and on SMYD3 [2] were 10.1 nM and 143 nM, respectively.

Take `CN1C2CC1CN(S(=O)(=O)N1[C@@H]3CC[C@H]1C[C@@H](NC(=O)c1cc(C4CC4)on1)C3)C2` [compound 582, 5-cyclopropyl-N-((1R,3r,5S)-8-((6-methyl-3,6-diazabicyclo[3.1.1]heptan-3-yl)sulfonyl)-8-azabicyclo[3.2.1]octan-3-yl)isoxazole-3-carboxamide]: the values for the IC50 on SMYD3 [1] and at SMYD3 [2] were 10.1 nM and 151 nM, respectively.

With `COCCN1CCC(CS(=O)(=O)N2CC[C@@H](NC(=O)c3cc(C4CC4)on3)C[C@H]2C)CC1` [compound 583, 5-cyclopropyl-N-((2R,4R)-1-(((1-(2-methoxyethyl)piperidin-4-yl)methyl)sulfonyl)-2-methylpiperidin-4-yl)isoxazole-3-carboxamide], the values for the IC50 at SMYD3 [1] and on SMYD3 [2] were 10.4 nM and 234 nM, respectively.

For the compound `CC[C@H]1CN(S(=O)(=O)N2CC[C@H](NC(=O)c3cc(C4CC4)on3)C[C@@H]2C)CCN1` [compound 584, 5-cyclopropyl-N-((2S,4S)-1-(((S)-3-ethylpiperazin-1-yl)sulfonyl)-2-methylpiperidin-4-yl)isoxazole-3-carboxamide], the IC50 at SMYD3 [1] was found to be 10.5 nM; on SMYD3 [2], 159 nM.

`C[C@H]1C[C@@H](NC(=O)c2cc(C3CC3)on2)CCN1S(=O)(=O)N1CCCNCC1` [compound 585, N-((2S,4S)-1-((1,4-diazepan-1-yl)sulfonyl)-2-methylpiperidin-4-yl)-5-cyclopropylisoxazole-3-carboxamide]: the half-maximal inhibitory concentration (IC50) at SMYD3 [1] worked out at 10.6 nM; on SMYD3 [2] it was 186 nM.

Take `CN(CCN)CCCS(=O)(=O)N1[C@@H]2CC[C@H]1C[C@@H](NC(=O)c1cc(C3CC3)on1)C2` [compound 586, N-((1R,3r,5S)-8-((3-((2-aminoethyl)(methyl)amino)propyl)sulfonyl)-8-azabicyclo[3.2.1]octan-3-yl)-5-cyclopropylisoxazole-3-carboxamide]: the half-inhibitory concentration (IC50) on SMYD3 [1] was determined as 10.7 nM; on SMYD3 [2], 263 nM.

Turning to `C[C@H]1C[C@@H](NC(=O)c2cc(C3CC3)on2)CCN1S(=O)(=O)CC1CCN(CCN2CCOCC2)CC1` [compound 587, 5-cyclopropyl-N-((2S,4S)-2-methyl-1-(((1-(2-morpholinoethyl)piperidin-4-yl)methyl)sulfonyl)piperidin-4-yl)isoxazole-3-carboxamide], the IC50 was found to be 10.7 nM at SMYD3 [1] and 311 nM at SMYD3 [2].

Regarding `C[C@H]1C[C@@H](NC(=O)c2cc(C3CC3)on2)CCN1S(=O)(=O)N1CC2CC(C1)N2` [compound 588, N-((2S,4S)-1-((3,6-diazabicyclo[3.1.1]heptan-3-yl)sulfonyl)-2-methylpiperidin-4-yl)-5-cyclopropylisoxazole-3-carboxamide], the IC50 on SMYD3 [1] was found to be 10.8 nM; on SMYD3 [2], 151 nM.

For the compound `C[C@@H]1C[C@H](NC(=O)c2cc(C3CC3)on2)CCN1S(=O)(=O)CC1CCN(CCO)CC1` [compound 589, 5-cyclopropyl-N-((2R,4R)-1-(((1-(2-hydroxyethyl)piperidin-4-yl)methyl)sulfonyl)-2-methylpiperidin-4-yl)isoxazole-3-carboxamide], the values for the 50% inhibitory concentration (IC50) at SMYD3 [1] and on SMYD3 [2] were 10.9 nM and 152 nM, respectively.
